In patent US20240041042A1, “1-(PYRIDYL)-5-AZINYLPYRAZOLE DERIVATIVES, AND THEIR USE FOR CONTROL OF UNDESIRED PLANT GROWTH” (Bayer Aktiengesellschaft, priority 2020, published 2024):
Where two headings read alike, the source gives them in different places.

Legend:
Assay type in all cases: in vivo
[1] = test system: Echinochloa crus-galli (ECHCG); experiment: Post-emergence herbicidal action against ECHCG
Procedure, shortened: (§1)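 Values are percent visual activity (0% like control, 100% plants dead) after about 3 weeks in the greenhouse. Treatment: post-emergence spray at one-leaf stage, 600 l/ha spray volume, 0.5% additive, doses 320 g/ha or lower.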

[2] = test system: Lolium rigidum (LOLRI); experiment: Post-emergence herbicidal action against LOLRI
Procedure, shortened: as §1

[3] = test system: Digitaria sanguinalis (DIGSA); experiment: Post-emergence herbicidal action against DIGSA; conditions: visual rating about 3 weeks after treatment
Procedure, shortened: as §1

[4] = test system: Setaria viridis (SETVI); experiment: Post-emergence herbicidal action against SETVI
Procedure, shortened: as §1

[5] = test system: Alopecurus myosuroides (ALOMY); experiment: Post-emergence herbicidal action against ALOMY; conditions: visual rating about 3 weeks after treatment vs untreated controls (100% = plants have died, 0% = like control plants)
Procedure, shortened: as §1

[6] = test system: Pharbitis purpurea (PHBPU); experiment: Post-emergence herbicidal action against PHBPU
Procedure, shortened: as §1

[7] = test system: Zea mays (ZEAMX); conditions: for Post-emergence action against ZEAMX in % (crop plant compatibility): 20 g/ha, effect in comparison to untreated controls; for Post-emergence action against ZEAMX in %: crop plant compatibility, 80 g/ha, effect vs untreated controls
Procedure, shortened: (§2)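 Percent effect on the crop was judged by eye against untreated controls, where 0% means like control and 100% means dead plants. Plants had been sprayed post-emergence at the one-leaf stage and then kept under optimum greenhouse conditions for about 3 weeks.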

[8] = test system: Oryza sativa (ORYSA); conditions: crop plant compatibility
Procedure, shortened: as §2

[9] = test system: Polygonum convolvulus (POLCO); experiment: Post-emergence herbicidal action against POLCO
Procedure, shortened: as §1

[10] = test system: Avena fatua (AVEFA); experiment: Post-emergence herbicidal action against AVEFA; conditions: visual rating about 3 weeks after treatment
Procedure, shortened: as §1

[11] = test system: Amaranthus retroflexus (AMARE); experiment: Post-emergence herbicidal action against AMARE
Procedure, shortened: as §1

[12] = test system: Matricaria inodora (MATIN); experiment: Post-emergence herbicidal action against MATIN
Procedure, shortened: as §1

[13] = test system: Abutilon theophrasti (ABUTH); experiment: Post-emergence herbicidal action against ABUTH; conditions: visual rating about 3 weeks after treatment vs untreated controls (100% = plants have died, 0% = like control plants)
Procedure, shortened: as §1

[14] = test system: Verconica persica (VERPE); experiment: Post-emergence herbicidal action against VERPE
Procedure, shortened: as §1

[15] = test system: Viola tricolor (VIOTR); experiment: Post-emergence herbicidal action against VIOTR
Procedure, shortened: as §1

[16] = 20 g/ha, effect vs untreated controls
[17] = 320 g/ha, visual rating about 3 weeks after treatment
[18] = 80 g/ha, effect in comparison to untreated controls
[19] = 80 g/ha, visual rating about 3 weeks after treatment vs untreated controls (100% = plants have died, 0% = like control plants)

SMILES	Post-emergence action against ECHCG in % ([1]; dosage 320 g/ha) [%]	Post-emergence action against LOLRI in % ([2]; dosage 80 g/ha) [%]	Post-emergence action against LOLRI in % ([2]; dosage 320 g/ha) [%]	Post-emergence action against DIGSA in % ([3]; 320 g/ha) [%]	Post-emergence action against SETVI in % ([4]; dosage 80 g/ha) [%]	Post-emergence action against SETVI in % ([4]; dosage 320 g/ha) [%]	Post-emergence action against ALOMY in % ([5]; 320 g/ha) [%]	Post-emergence action against PHBPU in % ([6]; dosage 320 g/ha) [%]	Post-emergence action against ZEAMX in % (crop plant compatibility) [7] [%]	Post-emergence action against ZEAMX in % [7] [%]	Post-emergence action against ORYSA in % [8, 16] [%]	Post-emergence action against POLCO in % ([9]; dosage 320 g/ha) [%]	Post-emergence action against AVEFA in % ([10]; 320 g/ha) [%]	Post-emergence action against AMARE in % [11, 17] [%]	Post-emergence action against MATIN in % ([12]; dosage 320 g/ha) [%]	Post-emergence action against ABUTH in % ([13]; 320 g/ha) [%]	Post-emergence action against VERPE in % ([14]; 320 g/ha, VERPE) [%]	Post-emergence action against VERPE in % ([14]; dosage 80 g/ha) [%]	Post-emergence action against VIOTR in % ([15]; 80 g/ha) [%]	Post-emergence action against VIOTR in % ([15]; 320 g/ha) [%]	other results
O=C(COc1nn(-c2ncccc2F)c(-c2ccc(F)nc2)c1C1CC1)OCC1CCCO1 (centres unmarked) [Example I-274]	90	80	90	90	90	90	90	80	10	20	0	80	90	90	90	80	90	90	80	90	Post-emergence action against ECHCG in % ([1]; dosage 80 g/ha): 80%
CCCOC(=O)COc1nn(-c2ncccc2F)c(-c2ccc(F)nc2)c1C1CC1 [Example I-344]	90	90	90	90	90	90	90	90	0	0	0	90	90	90	80	80	90	90	80	80	Post-emergence action against ECHCG in % ([1]; dosage 80 g/ha): 90%; Post-emergence action against DIGSA in % ([3]; 80 g/ha): 90%; Post-emergence action against ALOMY in % ([5]; 80 g/ha): 90%; Post-emergence action against PHBPU in % ([6]; dosage 80 g/ha): 90%; Post-emergence action against ORYSA in % [8, 18]: 0%; Post-emergence action against POLCO in % ([9]; dosage 80 g/ha): 80%; Post-emergence action against AVEFA in % ([10]; 80 g/ha): 90%; Post-emergence action against AMARE in % [11, 19]: 90%; Post-emergence action against MATIN in % ([12]; dosage 80 g/ha): 80%; Post-emergence action against ABUTH in % ([13]; 80 g/ha): 80%
COC(=O)[C@H](C)COC(=O)[C@@H](C)Oc1nn(-c2ccccn2)c(-c2ccc(F)nc2)c1Cl [Example I-275]	90	90	90	90	90	90	100	100	0	20	–	80	90	80	90	80	90	90	90	90	Post-emergence action against ALOMY in % ([5]; 80 g/ha): 80%; Post-emergence action against PHBPU in % ([6]; dosage 80 g/ha): 90%; Post-emergence action against POLCO in % ([9]; dosage 80 g/ha): 80%; Post-emergence action against AVEFA in % ([10]; 80 g/ha): 90%; Post-emergence action against MATIN in % ([12]; dosage 80 g/ha): 80%; Post-emergence action against ABUTH in % ([13]; 80 g/ha): 80%
COCCOC(=O)COc1nn(-c2ncccc2F)c(-c2ccc(F)nc2)c1C1CC1 [Example I-314]	90	90	90	90	90	90	90	90	0	10	0	90	90	90	80	80	90	90	90	90	Post-emergence action against ECHCG in % ([1]; dosage 80 g/ha): 90%; Post-emergence action against DIGSA in % ([3]; 80 g/ha): 90%; Post-emergence action against ALOMY in % ([5]; 80 g/ha): 90%; Post-emergence action against PHBPU in % ([6]; dosage 80 g/ha): 90%; Post-emergence action against ORYSA in % [8, 18]: 20%; Post-emergence action against AVEFA in % ([10]; 80 g/ha): 90%; Post-emergence action against AMARE in % [11, 19]: 90%; Post-emergence action against ABUTH in % ([13]; 80 g/ha): 80%
O=C(COc1nn(-c2ncccc2F)c(-c2ccc(F)nc2)c1C1CC1)OCC1CC1 [Example I-318]	90	90	90	90	90	90	90	90	0	0	0	90	90	90	80	80	90	90	80	90	Post-emergence action against ECHCG in % ([1]; dosage 80 g/ha): 90%; Post-emergence action against DIGSA in % ([3]; 80 g/ha): 90%; Post-emergence action against ALOMY in % ([5]; 80 g/ha): 90%; Post-emergence action against PHBPU in % ([6]; dosage 80 g/ha): 90%; Post-emergence action against POLCO in % ([9]; dosage 80 g/ha): 90%; Post-emergence action against AVEFA in % ([10]; 80 g/ha): 90%; Post-emergence action against AMARE in % [11, 19]: 90%; Post-emergence action against MATIN in % ([12]; dosage 80 g/ha): 80%; Post-emergence action against ABUTH in % ([13]; 80 g/ha): 80%
COC(=O)C(C)COC(=O)C(C)Oc1nn(-c2ccccn2)c(-c2ccc(F)nc2)c1Br (centres unmarked) [Example I-285]	80	80	90	90	90	90	90	90	10	–	10	80	80	–	80	80	80	80	80	80	Post-emergence action against DIGSA in % ([3]; 80 g/ha): 80%; Post-emergence action against ALOMY in % ([5]; 80 g/ha): 90%; Post-emergence action against PHBPU in % ([6]; dosage 80 g/ha): 80%; Post-emergence action against ORYSA in % [8, 18]: 10%
